Data: US10329243B2, “Biphenyl derivative and uses thereof” (XI'AN LIBANG PHARMACEUTICAL CO., LTD, priority 2015, dated 2019)

System: Fas
Assay: Fas determination (immunohistochemical method), permanent cerebral ischemia model
Type: in vivo, SD rats
Description: Rats were intraperitoneally injected with 10% chloral hydrate 350 mg/kg after anesthesia and opened up at the center of the neck in accordance with the Zea Longa modified method. The right common carotid artery was separated, and the right external carotid artery branches was ligated. A small opening was made at the distal end of the external carotid artery, and a previously prepared thread was inserted through the common carotid artery and the external carotid artery bifurcation into the internal carotid artery, till the anterior end of the middle cerebral artery, with an immersed depth of 18 to 19 mm. The thread was then secured, and the wound was sutured layer by layer. After the operation, the rats were placed in a clean incubator to wake up. […] The sham operation group, the permanent cerebral ischemia model group, and the Example groups were prepared strictly according to the requirements of the cerebral ischemic reperfusion model, while in the sham operation group the thread was put only into the external carotid artery. The animals were allowed to eat and drink freely after waking up. The sham operation group, the permanent cerebral ischemia model group, and the Example groups were administered intravenously the aqueous solution of the biphenyl derivatives in PEG400 at 40 mg/kg (40 mg/kg means that 40 mg of the test compound per kg of the body weight of rats) 30 min before insertion of thread and 12 h after embolism, respectively. The sham operation group and the permanent cerebral ischemia model group were injected with the same amount of blank PEG400 aqueous solution at the same time point.
24 hours after the embolism, 8 rats in each group were sacrificed by decapitation, the brain was removed, rinsed with PBS (pH 7.4) at −20°i for 20 min, evenly sliced (with a thickness of 2 mm), stained in a 2% TTC solution at 37°% in the dark for 30 min, fixed in 10% formalin for 24 h, and photographs were taken to analyze the infarct volume. A mixture of femoral arterial and venous blood was drawn from another 8 rats in each group under anesthesia, placed in a low temperature centrifuge at 4° C., centrifuged at 3500 r/min for 20 min, and the supernatant was stored in a refrigerator at −20° C. ready for SOD and MDA detection. After the blood was drawn, a perfusion needle was insert through the apex to the ascending aorta, and saline at 4° C. was rapid infused until the effluent became clear, followed by 4% paraformaldehyde phosphate buffer perfusion for fixation; the brain was removed by craniotomy, and brain tissues 2 mm in front of and behind the optic chiasma were taken and fixed, dehydrated, rendered transparent, impregnated in wax, and embedded. Brain continuous coronary tissue pathological sections were consecutively cut for later use. The remaining 8 rats in each group were sacrificed, brains were removed, the ischemic brain hemispheres were immediately taken on an ice tray, and 10% brain tissue homogenate was prepared for the detection of IL-1β and TNF-α.
The immunohistochemical method was used for determination. Brain tissue paraffin sections were dewaxed into water, washed with 3% H2O2 to eliminate endogenous peroxidase activity, and rinsed with distilled water for 3 times. Sodium citrate buffer was used for antigen heat repairing, and blocking with calf serum was carried out at room temperature for 15 min; a rabbit anti-mouse Fas antibody was added dropwise, allowed to stand at 4°t overnight, biotinylated goat anti-rabbit IgG was added dropwise, and heated in a water bath at 37°a for 20 min. Washing with PBS for 5 min was continuously repeated 4 times, followed by staining with DAB and sufficient washing without counterstaining. The sections were then gradient dehydrated with alcohol, made transparent with toluene, sealed and fixed. Images were captured by a video camera under high-power optical microscope and inputted into the image analysis system for image analysis. […]

[1] = permanent cerebral ischemia model rats, 40 mg/kg intravenously, brain sections 24 h after the embolism, gray scale inversely proportional to positive expression

Compound | Fas average gray scale [1] | also measured
3,3′,5,5′-tetraisopropylbiphenyl-4,4′-bis(oxymethylene phosphate) [Example 3 group] |  | Fas average gray scale (rat, in vivo, iv, 40 mg/kg): 143.39 ± 4.23
CC1=NN(c2ccccc2)C(=O)C1 [Edaravone injection, edaravone, reference compound] |  | Fas average gray value (permanent cerebral ischemia model rats, edaravone 3 mg/kg): 138.95 ± 5.50
CC(=O)Oc1c(C(C)C)cc(-c2cc(C(C)C)c(OC(C)=O)c(C(C)C)c2)cc1C(C)C [Example 2 group, 3,3′,5,5′-tetraisopropylbiphenyl-4′-diacetate] | 149.63 ± 8.15 | 
CC(C)c1cc(-c2cc(C(C)C)c(OC(=O)CCC(=O)O)c(C(C)C)c2)cc(C(C)C)c1O [Example 5 group, [4-(4′-hydroxy-3,3′,5,5′-tetraisopropylbiphenyl)oxy]-4-carbonyl butyric acid] | 143.02 ± 5.53 | 
CCCc1cc(-c2cc(CCC)c(O)c(C(C)C)c2)cc(C(C)C)c1O [Example 6 group, 4,4′-dihydroxy-3,3′-diisopropyl-5,5′-dipropylbiphenyl] | 151.63 ± 5.58 | 
CCCc1cc(-c2cc(CCC)c(O)c(CCC)c2)cc(CCC)c1O [Example 7 group, 4,4′-dihydroxy-3,3′,5,5′-tetrapropylbiphenyl] | 153.46 ± 5.73 | 
CC(C)c1cc(-c2cc(C(C)C)c(C(=O)O)c(C(C)C)c2)cc(C(C)C)c1O [Example 8 group, 4′-hydroxy-3,3′,5,5′-tetraisopropylbiphenyl-4-carboxylic acid] | 145.24 ± 5.26 | 
CC(C)c1cc(-c2cc(C(C)C)c(Cl)c(C(C)C)c2)cc(C(C)C)c1O [Example 9 group, 4-chloro-4′-hydroxy-3,3′,5,5′-tetraisopropylbiphenyl] |  | Fas average gray scale (rat, in vivo, iv, 40 mg/kg): 144.31 ± 5.49
CC(C)c1cc(-c2cc(C(C)C)c(OC=O)c(C(C)C)c2)cc(C(C)C)c1O [Example 10 group] | 140.62 ± 3.85 | 
CC(C)c1cc(-c2cc(C(C)C)c(OC(=O)C(N)C(C)C)c(C(C)C)c2)cc(C(C)C)c1O (centres unmarked) [Example 11 group, 4′-hydroxy-3,3′,5,5′-tetraisopropylbiphenyl-2-amino-3-methylbutyrate] | 150.72 ± 4.19 | 
CC(=O)OC(C)Oc1c(C(C)C)cc(-c2cc(C(C)C)c(O)c(C(C)C)c2)cc1C(C)C (centres unmarked) [Example 12 group, Ethyl 1-(4′-hydroxy-3,3′,5,5′-tetraisopropylbiphenyl-4-oxo)acetate] | 139.48 ± 5.72 | 
